Structures can show the parent of a compound that is named as a salt.
Molecular target: human KV7.2/KV7.3 (Homo sapiens (Human), UniProt O43525+O43526)
Test: Potassium flux assay (IPG-2 AM dye)
Format: cell-based
Conditions: TREX HEK 293 or HEK 293 cells expressing human KV7.2/KV7.3; arithmetic mean values
Text: This potassium flux assay employs the cell-permeable, potassium-sensitive dye, IPG-2 AM, to quantify potassium ion flux through potassium channels.
In general, TREX HEK 293 or HEK 293 cells were stably transfected with either an inducible or non-inducible expression vector containing the full-length cDNA coding for the desired human KV7.2/KV7.3 or in combination with another full-length cDNA for a second desired human KV7 potassium channel. Potassium channel-expressing cell lines were induced with tetracycline (1 μg/mL), if required, and plated on 384-well poly-D-lysine (PDL)-coated plates in culture media (DMEM, containing 10% FBS and 1% L-glutamine). After overnight incubation, culture media was removed and cells were loaded with 5 μM IPG-2 AM dye for 1 hour in Assay buffer (140 mM NaCl, 20 mM RbCl, 2 mM CaCl2, 1 mM MgCl2, 10 mM HEPES (4-(2-hydroxyethyl)-1-piperazineethanesulfonic acid buffer), 10 mM glucose, adjusted with Tris to pH 7.4). Excess dye was removed, and cells incubated at room temperature for 20 minutes with or without test compound. A Hamamatsu FDSS μCell was used to perform a 1:1 addition of K challenge buffer (150 mM NaCl, 10 mM HEPES, 2 mM CaCl2, 10 mM KCl, 1 mM MgCl2, 10 mM glucose, adjusted with Tris to pH 7.4 for human KV7.2/KV7.3, and simultaneously read plates at excitation wavelength of 530 nm and emission wavelength of 558 nm. Non-potassium channel-mediated potassium influx was determined in the presence of DMSO, and maximal influx was determined in the presence of a known KV7.x channel modulator. For each test compound, a concentration response curve was generated with 16 concentrations points, 2-fold serial dilution starting at 30 μM and an EC50 value was determined.

SMILES	EC50 [µM]
CC1(C)CCC(COc2ccc3c(Nc4ccc(Cl)nc4)nccc3c2)O1 (centres unmarked) [Example 6, N-(6-chloropyridin-3-yl)-6-((5,5-dimethyltetrahydrofuran-2-yl)methoxy)isoquinolin-1-amine]	1 to 10
FC(F)Oc1ccc2c(Nc3ccc(Cl)nc3)nccc2c1 [Example 7, N-(6-chloropyridin-3-yl)-6-(difluoromethoxy)isoquinolin-1-amine]	1 to 10
Clc1ccc(Nc2nccc3cc(Oc4ccccc4)ccc23)cn1 [Example 8, N-(6-chloropyridin-3-yl)-6-phenoxyisoquinolin-1-amine]	1 to 10
Clc1ncc(Nc2nccc3cc(OCC4CC4)ccc23)cn1 [Example 9, N-(2-chloropyrimidin-5-yl)-6-(cyclopropylmethoxy)isoquinolin-1-amine]	< 1
COC(=O)c1ccc2c(Nc3ccc(Cl)nc3)nccc2c1 [Example 10, methyl 1-((6-chloropyridin-3-yl)amino)isoquinoline-6-carboxylate]	10 to 30
Clc1ccc(Nc2nccc3sccc23)cn1 [Example 11, N-(6-chloropyridin-3-yl)thieno[3,2-c]pyridin-4-amine formate]	1 to 10
Clc1ccc(Nc2nccc3ccsc23)cn1 [Example 12, N-(6-chloropyridin-3-yl)thieno[2,3-c]pyridin-7-amine]	1 to 10
Clc1ccc(Nc2nccc3scnc23)cn1 [Example 13, N-(6-chloropyridin-3-yl)thiazolo[4,5-c]pyridin-4-amine]	1 to 10
Clc1ccc(Nc2nccc3cc[nH]c23)cn1 [Example 14, N-(6-chloropyridin-3-yl)-1H-pyrrolo[2,3-c]pyridin-7-amine]	1 to 10
COc1cnc(Nc2ccc(Cl)nc2)c2[nH]ccc12 [Example 15, N-(6-chloropyridin-3-yl)-4-methoxy-1H-pyrrolo[2,3-c]pyridin-7-amine formate]	1 to 10
Clc1ccc(Nc2nccc3ccoc23)cn1 [Example 16, N-(6-chloropyridin-3-yl)furo[2,3-c]pyridin-7-amine formate]	1 to 10
Cc1csc2c(Nc3ccc(Cl)nc3)nccc12 [Example 17, N-(6-chloropyridin-3-yl)-3-methylthieno[2,3-c]pyridin-7-amine]	1 to 10
Fc1ccc2c(Nc3ccc(Cl)nc3)nccc2c1 [Example 18, N-(6-chloropyridin-3-yl)-6-fluoroisoquinolin-1-amine formate]	1 to 10
COc1ccc2c(Nc3ccc(Cl)nc3)nccc2c1 [Example 19, N-(6-chloropyridin-3-yl)-6-methoxyisoquinolin-1-amine formate]	1 to 10
Cc1ccc2c(Nc3ccc(Cl)nc3)nccc2c1 [Example 20, N-(6-chloropyridin-3-yl)-6-methylisoquinolin-1-amine formate]	1 to 10
Clc1ccc2c(Nc3ccc(Cl)nc3)nccc2c1 [Example 21, 6-chloro-N-(6-chloropyridin-3-yl)isoquinolin-1-amine]	10 to 30
Fc1cccc2c(Nc3ccc(Cl)nc3)nccc12 [Example 22, N-(6-chloropyridin-3-yl)-5-fluoroisoquinolin-1-amine]	1 to 10
Fc1ccc2c(Nc3cnc(Cl)nc3)nccc2c1 [Example 23, N-(2-chloropyrimidin-5-yl)-6-fluoroisoquinolin-1-amine]	1 to 10
Cc1ncc(Nc2nccc3cc(OCC4CC4)ccc23)cn1 [Example 24, 6-(cyclopropylmethoxy)-N-(2-methylpyrimidin-5-yl)isoquinolin-1-amine]	1 to 10
Cc1ncc(Nc2nccc3cc(OCC4CCOC4)ccc23)cn1 (centres unmarked) [Example 25, N-(2-methylpyrimidin-5-yl)-6-((tetrahydrofuran-3-yl)methoxy)isoquinolin-1-amine]	1 to 10
Cc1ncc(Nc2nccc3cc(OCC(F)F)ccc23)cn1 [Example 26, 6-(2,2-difluoroethoxy)-N-(2-methylpyrimidin-5-yl)isoquinolin-1-amine]	1 to 10
Cc1ncc(Nc2nccc3cc(OCC4CCC(C)(C)O4)ccc23)cn1 (centres unmarked) [Example 27, 6-((5,5-dimethyltetrahydrofuran-2-yl)methoxy)-N-(2-methylpyrimidin-5-yl)isoquinolin-1-amine]	1 to 10
Cc1ccc(Nc2nccc3cc(OCC4CC4)ccc23)cn1 [Example 28, 6-(cyclopropylmethoxy)-N-(6-methylpyridin-3-yl)isoquinolin-1-amine]	1 to 10
CC(Oc1ccc2c(Nc3ccc(Cl)nc3)nccc2c1)C1CC1 (centres unmarked) [Example 29, N-(6-chloropyridin-3-yl)-6-(1-cyclopropylethoxy)isoquinolin-1-amine]	1 to 10
Clc1ccc(Nc2nccc3occc23)cn1 [Example 30, N-(6-chloropyridin-3-yl)furo[3,2-c]pyridin-4-amine formate]	1 to 10
Clc1ccc(Nc2nccc3cccnc23)cn1 [Example 31, N-(6-chloropyridin-3-yl)-1,7-naphthyridin-8-amine formate]	1 to 10
Clc1ncc(Nc2nccc3cccnc23)cn1 [Example 32, N-(2-chloropyrimidin-5-yl)-1,7-naphthyridin-8-amine]	1 to 10
Clc1ccc(Nc2nccc3ccccc23)cn1 [Example 33, N-(6-chloropyridin-3-yl)isoquinolin-1-amine]	1 to 10

Further lines, results first:

EC50 [µM]	SMILES
1 to 10	CS(C)(=O)=Nc1ccc2c(Nc3ccc(Cl)nc3)nccc2c1 [Example 34, ((1-((6-chloropyridin-3-yl)amino)isoquinolin-6-yl)imino)dimethyl-λ^6-sulfanone]
1 to 10	Cc1cnc(Nc2ccc(Cl)nc2)c2[nH]ccc12 [Example 35, N-(6-chloropyridin-3-yl)-4-methyl-1H-pyrrolo[2,3-c]pyridin-7-amine]
< 1	COc1cc(Nc2nccc3cc(OCC4(C)COC4)ccc23)cnc1Cl [Example 36, N-(6-chloro-5-methoxypyridin-3-yl)-6-((3-methyloxetan-3-yl)methoxy)isoquinolin-1-amine]
10 to 30	COCCOc1ccc2c(Nc3cnc(C)nc3)nccc2c1 [Example 37, 6-(2-methoxyethoxy)-N-(2-methylpyrimidin-5-yl)isoquinolin-1-amine]
10 to 30	Cc1ncc(Nc2nccc3cc(OCCOC4CC4)ccc23)cn1 [Example 38, 6-(2-cyclopropoxyethoxy)-N-(2-methylpyrimidin-5-yl)isoquinolin-1-amine]
1 to 10	Clc1ccc(Nc2nccc3cc(OCCOC4CC4)ccc23)cn1 [Example 39, N-(6-chloropyridin-3-yl)-6-(2-cyclopropoxyethoxy)isoquinolin-1-amine]
< 1	N#CC12CC(COc3ccc4c(Nc5cnc(Cl)nc5)nccc4c3)(C1)C2 [Example 40, 3-(((1-((2-chloropyrimidin-5-yl)amino)isoquinolin-6-yl)oxy)methyl)bicyclo[1.1.1]pentane-1-carbonitrile]
< 1	CC(C)C1(COc2ccc3c(Nc4cnc(Cl)nc4)nccc3c2)COC1 [Example 41, N-(2-chloropyrimidin-5-yl)-6-((3-isopropyloxetan-3-yl)methoxy)isoquinolin-1-amine]
< 1	CC1(COc2ccc3c(Nc4cnc(Cl)c(O)c4)nccc3c2)COC1 [Example 42, 2-chloro-5-((6-((3-methyloxetan-3-yl)methoxy)isoquinolin-1-yl)amino)pyridin-3-ol]
≥ 30	FC(F)c1ccc(Nc2nccc3cc(OCC4(F)CC4)ccc23)cn1 [Example 43, N-(6-(difluoromethyl)pyridin-3-yl)-6-((1-fluorocyclopropyl)methoxy)isoquinolin-1-amine]
10 to 30	CCc1ncc(Nc2nccc3cc(OCC4(F)CC4)ccc23)cn1 [Example 44, N-(2-ethylpyrimidin-5-yl)-6-((1-fluorocyclopropyl)methoxy)isoquinolin-1-amine]
≥ 30	Cc1ncc(Nc2nccc3cc(OCC4(F)CC4)ccc23)cc1Cl [Example 45, N-(5-chloro-6-methylpyridin-3-yl)-6-((1-fluorocyclopropyl)methoxy)isoquinolin-1-amine]
1 to 10	COc1ncc(Nc2nccc3cc(OCC4(F)CC4)ccc23)cn1 [Example 46, 6-((1-fluorocyclopropyl)methoxy)-N-(2-methoxypyrimidin-5-yl)isoquinolin-1-amine]
≥ 30	FC1(COc2ccc3c(Nc4ccc(C(F)(F)F)nc4)nccc3c2)CC1 [Example 47, 6-((1-fluorocyclopropyl)methoxy)-N-(6-(trifluoromethyl)pyridin-3-yl)isoquinolin-1-amine]
1 to 10	FC1(COc2ccc3c(Nc4cncc(Cl)c4)nccc3c2)CC1 [Example 48, N-(5-chloropyridin-3-yl)-6-((1-fluorocyclopropyl)methoxy)isoquinolin-1-amine]
1 to 10	FC1(COc2ccc3c(Nc4cncnc4)nccc3c2)CC1 [Example 49, 6-((1-fluorocyclopropyl)methoxy)-N-(pyrimidin-5-yl)isoquinolin-1-amine]
